Assay results as given in patent US10101331B2, “Methods of evaluating patients using E-cadherin or vimentin” (AGIOS PHARMACEUTICALS, INC, priority 2012, dated 2018).
“Also recorded” adds a separate entry of the source.

Columns and labels:
Assay type in all cases: cell-based
A427 = test: 72 hr proliferation assay using CellTiter-Glo in 96-well format; details: 72 hr treatment
Text: (§1) FIGS. 8A-8C depict the GLS1 dependence in selected cancer cell lines. FIG. 8A depicts a western blot analysis of GLS1 and GLS2 protein levels in indicated cell lines. KGA and GAC alternative splice variants are indicated.
(§2) Proc of the National Academy of Sciences 109, 1092 (2012); McBryant Supra; DeLaBarre, Supra). […] This loop differs in primary sequence between GLS1 and GLS2, thereby explaining the differential response of the two isoforms.

CAKI-1 = test: as above; details: 72 hr treatment
Text: as §1, §2

HCT116 = test: as above; details: 72 hr treatment
Text: as §1, §2

HUH7 = test: as above; details: 72 hr treatment
Text: as §1, §2

HepG2 = test: as above; details: 72 hr treatment
Text: as §1, §2

MDA-MB-231 = test: as above; details: 72 hr treatment
Text: as §1, §2

PC3 = test: as above; details: 72 hr treatment
Text: as §1, §2

SKBR3 = test: as above; details: 72 hr treatment
Text: as §1, §2

MDA-MB-231 cells [1] = test: 72 hr proliferation assay in lines stably expressing empty vector, GAC or GAC-BR
Method: (§3) MDA-MB-231 cell lines stably expressing empty vector control (Con), wild-type GAC (GAC), or a BPTES-resistant GAC enzyme (GAC-BR) were treated with indicated concentrations of drugs in a 72 hr proliferation assay. […] Calculated p-values from student t-test, * (3×10^−5), **(7×10^−10), ^#(3×10^−5), ^##(5×10^−7).
Levels of overexpression of the GAC WT and GAC-BR mutant were approximately 1.5-2.0 fold above endogenous GLS1 levels (FIG. 12).

A427 cells = test: 13C(5)-Gln labeling of glutamate and aspartate, LC/MS; details: 1 hr drug pre-treatment, 2 hr 13C(5)-Gln labeling
Method: A427 parent cells or lines stably expressing pLVX empty vector control (Con), wild-type GAC (GAC), or a BPTES-resistant GAC enzyme (GAC-BR) were treated with indicated concentrations of drugs in a 72 hr proliferation assay. […] Calculated p-values from student t-test, * (3×10^−8), **(10^−9), ^#(10^−7), ^##(2×10^−6).
(§4) Several groups have shown that GLS inhibition leads to a decrease in cellular tricarboxylic acid cycle (TCA) intermediates downstream of GLS activity (P. Gao et al. Nature 458, 762 (2009); T. Cheng et al. Proceedings of the National Academy of Sciences 108, 8674 (2011)). Measurement of glutamate (the product of the glutaminase reaction) and aspartate (which derives both carbon and nitrogen from glutamate) are particularly sensitive readouts of glutaminase activity (FIG. 13). ^13C labeled carbon in cells pre-treated with drug was tracked for 1 hr, followed by a 2 hr ^13C(5)-Gln labeling period, via LC/MS.

MDA-MB-231 cells [2] = test: as above; details: 1 hr drug pre-treatment, 2 hr 13C(5)-Gln labeling
Method: as §3, §4

NCI-H28 = test: Mesothelioma cancer cell lines screened for sensitivity to BPTES; details: NCI-H28, among mesothelioma cancer cell lines
Text: The MET-5A cell line is a normal […] cell line.
Low E-cadherin/high vimentin are well-defined markers of cells that have a mesenchymal phenotype as characterized for example, in any one of the following references: (Yauch et al., (2005) Cin Cancer Res 11:24; Savagner et al., (2010) Ann Oncol. 21(suppl 7): vii89; Thiery et al., (2002) Nature Reviews Cancer June vol 2:442).

## O=C(Cc1ccccc1)Nc1nnc(CCSCCc2nnc(NC(=O)Cc3ccccc3)s2)s1 [BPTES]
A427
  response to BPTES treatment: Maximum response
CAKI-1
  sensitivity to BPTES treatment: modest sensitivity
HCT116
  response to the compound: minimal response
HUH7
  response to the compound: minimal response
HepG2
  sensitivity to BPTES treatment: modest sensitivity
MDA-MB-231
  sensitivity to BPTES treatment: modest sensitivity
PC3
  response to the compound: minimal response
SKBR3
  response to BPTES treatment: minimum effect; also recorded: minimal response
MDA-MB-231 cells [1]; MDA-MB-231 cells expressing empty vector or GAC-WT
  sensitivity to BPTES: retained significant sensitivity
MDA-MB-231 cells [1]; MDA-MB-231 cells with stable overexpression of the GAC-BR mutant
  sensitivity to BPTES: rendered resistant
A427 cells
  13C label accumulation in glutamate and aspartate: decreased label accumulation
MDA-MB-231 cells [2]
  13C label accumulation in glutamate and aspartate: decreased label accumulation
NCI-H28
  sensitivity to BPTES: most sensitive
